≈ marks a conversion by molar mass, not a printed value. Where two headings read alike, the source gives them in different places.
Legend:
[1] = system: Adeno-1; test: Cytopathic assay (CPE); format: cell-based, Adenovirus; settings: Adeno-1/CPE
Description: For the Cytopathic assay (CPE) Plates of cells were incubated with the respective adenovirus subtype and drug at different drug concentrations. Cells were incubated until a Cytopathic effect was clearly observed in plates where cells and virus were plated without drug. In plates where drug was added, the cytopathic effect was quantified using a light microscope and expressed as 0% (no effect) up to 100% (effect as strong as in the no drug control plates). CPE readings were plotted against the drug concentration and the EC50 value was determined as the drug concentration where 50% CPE was observed.

[2] = system: Adeno-1; test: Plaque reduction neutralization test (NR); format: cell-based, Adenovirus; settings: Adeno-1/NR
Description: (§1) The Plaque reduction neutralization test (NR) is used to quantify the ability of a dendrimer to neutralize/inactivate virus. The dendrimer solution to be tested is diluted and mixed with a viral suspension. This is incubated to allow the dendrimer to react with the virus. This is poured over a confluent monolayer of host cells. The surface of the cell layer is covered in a layer of agar or carboxymethyl cellulose to prevent the virus from spreading. The concentration of plaque forming units can be estimated by the number of plaques (regions of infected cells) formed after a few days. Depending on the virus, the plaque forming units are measured by microscopic observation, fluorescent labelled antibodies or specific dyes that react with infected cells. The concentration of dendrimer to reduce the number of plaques by 50% compared to the dendrimer free virus gives the EC50 value.

[3] = system: Adeno-5; test: Plaque reduction neutralization test (NR); format: cell-based, Adenovirus; settings: Adeno-5/NR
Description: as §1

[4] = system: Gardnerella vaginalis ATCC 14018 (MMX 4153); test: Serial passage resistance development, MIC; format: cell-based; settings: for MIC: Gardnerella vaginalis
[5] = system: Mobiluncus curtisii ATCC 35241 (MMX 4145); test: Serial passage resistance development, MIC; format: cell-based; settings: for MIC: Mobiluncus curtisii
[6] = system: Lactobacillus acidophilus MMX 5716; test: Serial passage resistance development, MIC; format: cell-based; settings: for MIC: Lactobacillus acidophilus
[7] = system: Prevotella bivia MMX 3447; test: Serial passage resistance development, MIC; format: cell-based; settings: for MIC: Prevotella bivia
[8] = system: Adenovirus; test: Plaque reduction neutralization test (NR), positive control, subtype not given; format: cell-based; settings: unidentified adenovirus
Description: as §1
Ribivirin was included as a positive control.

[9] = system: Ad5 McEwen; test: In vivo treatment of adenoviral eye infection, ocular cultures titred by plaque assay; set-up: species or system NZW female rabbits; settings: 0.5% cidofovir in saline, 37 μL per eye twice a day, n = 8-10
Description: Following general anesthesia and corneal scarification, NZW female rabbits were inoculated in each eye with 50 μl of 3.0×10^7 PFU/mL (1.5×10^6 PFU/eye) of Ad5 McEwen. At about 3 hours after inoculation, a swab was taken of the tear film and corneal and conjunctival surfaces into tubes containing 1 mL of outgrowth media, and cultured for adenovirus.
The rabbits were then divided into 3 groups: 3% SPL7013 (n=5), Vehicle (n=5) and 0.5% cidofovir in saline as positive control (n=4). Commencing on day 1, animals were treated in each eye with 37 μL of drug 8 times a day, or 37 μL of control twice a day. Swabs of the tear film and corneal and conjunctival surfaces were taken one hour after treatment.
Ad5 titers were determined on A549 lung carcinoma cell monolayers using a standard plaque assay. The ocular cultures were diluted and inoculated onto A549 monolayers, and the virus adsorbed for 3 hours. Following adsorption, 1 mL of media plus 0.5% methylcellulose was added to each well, and the plates were incubated at 37° C. in a 5% CO2-water vapor atmosphere for 7 days, then stained with 0.5% gentian violet, and plaques were counted.

[10] = system: Adenovirus 37 (ATCC #VR-929); test: Adenoviral replication titer reduction, drug added after infection (control protocol); format: cell-based; settings: for Percent reduction of adenoviral replication: Adeno-37, WI-38 cells
Description: (§2) Adenovirus subtype 5 (ATCC #VR-5) was used with HeLa cells (ATCC #CCL-2), Adenovirus subtype 8 (ATCC #VR-1640) was used with A549 cells (ATCC #CCL-185), Adenovirus subtype 19 (ATCC #VR-254) was used with Chang C cells (ATCC #CCL-20.2) and Adenovirus 37 (ATCC #VR-929) was used with WI-38 cells (ATCC #CCL-75). Both epithelial and fibroblast cell types were used. The recovered virus was titrated in the susceptible cell lines by performing dilutions at 1/10 to 1/100,000 and addition to cells in plates. When cytopathic effect (CPE) was apparent in the virus control, titration plates were classified as positive or negative for cytopathic effect and based on the dilution of the virus applied to the different plates, the 50% tissue-culture infective dose (TCID50) was calculated using the Spearman-Kärber method (Hubert, J J (1984) Spearman-Karber Method in Bioaasay. Hunt, Dubuque, Iowa, pp 65, 66). The TCID50 establishes the dilution at which 50% of the plates show a cytopathic effect (infection). Comparing the TCID50 for sample without SPL7013 with the TCID50 values for samples with different concentrations of SPL7013 provides a measure of the percent reduction of infection achieved by each concentration of SPL7013. This percent reduction represents the activity of SPL7013 against penetration of cells with adenoviruses. A control substance (cidofovir) was tested alongside SPL7013 at 20 μg/mL, 2 μg/mL, 0.2 μg/mL and 0.02 μg/mL (Gordon Y J, Antiviral Research, 1991, 16(1), 11-16). Because cidofovir acts later in the viral replication cycle, target cells were first infected with 0.1 MOI virus and incubated 60 minutes at 37° C.±2° C. Virus was removed, cidofovir was added at the respective concentrations and cells were incubated until CPE reached its maximum. Cells were then lysed and virus was titrated as described above.

[11] = system: Adenovirus subtype 8 (ATCC #VR-1640); test: as above; format: cell-based; settings: for Percent reduction of adenoviral replication: Adeno-8, A549 cells
Description: as §2

[12] = system: Adenovirus subtype 19 (ATCC #VR-254); test: as above; format: cell-based; settings: for Percent reduction of adenoviral replication: Adeno-19, Chang C cells
Description: as §2

[13] = system: Adenovirus subtype 5 (ATCC #VR-5); test: as above; format: cell-based; settings: for Percent reduction of adenoviral replication: Adeno-5, HeLa cells
Description: as §2

[14] = ATCC14018, read-out: MIC after serial passage
[15] = ATCC14018, read-out: MIC at baseline

[BHALys][Lys]32deoxycholicacid[NHCSNH-4-ph-SO3Na]63
EC50 [1]: 20 µg/mL | EC50 [2]: 10 µg/mL

[NH3][PAMAM]2[CSNH-3,5-Ph(SO3Na)2]24
EC50 [3]: 150 µg/mL

CO[C@H]1/C=C/O[C@@]2(C)Oc3c(C)c(O)c4c(O)c(c5c(nc6cc(C)ccn65)c4c3C2=O)NC(=O)/C(C)=C\C=C\[C@H](C)[C@H](O)[C@@H](C)[C@@H](O)[C@@H](C)[C@H](OC(C)=O)[C@@H]1C [Rifaximin]
MIC [4, 14]: 128 µg/mL (≈ 163 µM) | MIC [4, 15]: 0.06 µg/mL (≈ 0.0763 µM) | Fold increase of MIC ([4]; by passage 9): > 2000 fold | Change of MIC during passage (in words) ([5]; 10 serial passages): No apparent increase | MIC ([6]; MMX5716, read-out: MIC after serial passage): 64 µg/mL (≈ 81.4 µM) | MIC ([6]; MMX5716, read-out: MIC at baseline): 1 µg/mL (≈ 1.27 µM) | Fold increase of MIC ([6]; by passage 9): 64 fold | MIC ([7]; MMX3447, read-out: MIC after serial passage): 0.12 µg/mL (≈ 0.153 µM) | MIC ([7]; MMX3447, read-out: MIC at baseline): 0.03 µg/mL (≈ 0.0382 µM) | Fold increase of MIC ([7]; passage number not given): 4 fold

NC(=O)c1ncn([C@@H]2O[C@H](CO)[C@@H](O)[C@H]2O)n1 [Ribavirin]
EC50 [8]: 10 µg/mL (≈ 40.9 µM)

Cc1ncc([N+](=O)[O-])n1CCO [Metronidazole]
MIC [4, 14]: > 128 µg/mL | MIC [4, 15]: 4 µg/mL (≈ 23.4 µM) | Fold increase of MIC ([4]; by passage 7): > 64 fold | MIC ([5]; ATCC35241, read-out: MIC after serial passage): > 128 µg/mL | MIC ([5]; ATCC35241, read-out: MIC at baseline): 8 µg/mL (≈ 46.7 µM) | Fold increase of MIC ([5]; by passage 5): > 16 fold

[NH3][PAMAM]4NHCSNH-2-naphth-5,7-(SO3Na)2]24
EC50 [1]: 20 µg/mL

Nc1ccn(C[C@@H](CO)OCP(=O)(O)O)c(=O)n1 [cidofovir]
% Ad5 -Positive cultures ([9]; Day 0 (before treatment)): 100% | % Ad5 -Positive cultures ([9]; Day 1): 100% | % Ad5 -Positive cultures ([9]; Day 3): 100% | % Ad5 -Positive cultures ([9]; Day 4): 75% | Percent reduction of adenoviral replication ([10]; cidofovir 0.02 μg/mL): 0.00% | Percent reduction of adenoviral replication ([10]; cidofovir 0.2 μg/mL): 57.83% | Percent reduction of adenoviral replication ([10]; cidofovir 2 μg/mL): 99.99% | Percent reduction of adenoviral replication ([10]; cidofovir 20 μg/mL): >99.99% | IC50 ([10]; unidentified adenovirus, Adeno-37, estimated, molar basis (279 g/mol)): 112 nM | Percent reduction of adenoviral replication ([11]; cidofovir 0.02 μg/mL): 90.00% | Percent reduction of adenoviral replication ([11]; cidofovir 0.2 μg/mL): 98.22% | Percent reduction of adenoviral replication ([11]; cidofovir 2 μg/mL): 98.67% | Percent reduction of adenoviral replication ([11]; cidofovir 20 μg/mL): 99.00% | IC50 ([11]; unidentified adenovirus, Adeno-8, estimated, molar basis (279 g/mol)): 112 nM | Percent reduction of adenoviral replication ([12]; cidofovir 0.02 μg/mL): 0.00% | Percent reduction of adenoviral replication ([12]; cidofovir 0.2 μg/mL): 0.00% | Percent reduction of adenoviral replication ([12]; cidofovir 2 μg/mL): 43.77% | Percent reduction of adenoviral replication ([12]; cidofovir 20 μg/mL): 94.38% | IC50 ([12]; unidentified adenovirus, Adeno-19, estimated, molar basis (279 g/mol)): 52.4 µM | Percent reduction of adenoviral replication ([13]; cidofovir 0.02 μg/mL): 68.38% | Percent reduction of adenoviral replication ([13]; cidofovir 0.2 μg/mL): 82.22% | Percent reduction of adenoviral replication ([13]; cidofovir 2 μg/mL): 86.66% | Percent reduction of adenoviral replication ([13]; cidofovir 20 μg/mL): 90.00% | IC50 ([13]; unidentified adenovirus, Adeno-5, estimated, molar basis (279 g/mol)): 559 nM

— US10149885B2, “Method of treatment or prophylaxis of infections of the eye” (STARPHARMA PTY LIMITED, priority 2012, dated 2018)
